Key:
[1] = target: T1, human metabotropic glutamic acid receptor 1a (mGluR1a) (Homo sapiens, UniProt Q13255); assay: Measurement of intracellular calcium concentration (FLIPR) in mGluR1a-expressing CHO cells; type: cell-based; settings: for IC50: Fluo-3, compound added 5 minutes before 10 μM glutamic acid, read-out: IC50 (inhibition of the calcium increase caused by 10 μM glutamic acid); for agonistic effect to mGluR1: to 10 μM, intracellular calcium
T1 construct: expressed in transfected cells
Procedure: Using LIPOFECTAMINE (BY Gibco BRL), CHO cells were transfected with a cDNA of a human metabotropic glutamic acid receptor 1a (mGluR1a), thereby obtaining an mGluR1a stable expression strain. The mGluR1a-expressing CHO cells were incubated in a DMEM medium containing 10% dialyzed fetal calf serum, 1% proline, 100 units/ml penicillin, 0.1 mg/ml streptomycin sulfate, and 2 mM glutamine.
On the day before the test day, the mGluR1a-expressing CHO cells that had been plated in a 96-well black plate (View Plate by Packard) at […] with 4 μM Fluo-3 were incubated in a CO2 incubator for 1 hour. Next, the cells were washed four times with an HBSS solution containing 20 mM HEPES and 2.5 mM Probenecid, and then the intracellular calcium concentration was measured using Fluorescence Imaging Plate Reader (FLIPR by Molecular Device). The test compound and glutamic acid were conditioned with an HBSS solution containing 20 mM HEPES and 2.5 mM Probenecid. The test compound was added to the system before 5 minutes of agonist stimulation, and 10 μM glutamic acid was used as the agonist.

[2] = test system: Male ICR (CD-1) mice; assay: Inhibitory effect of compound to mouse action increased by methamphetamine; type: in vivo; settings: compound 30 mg/kg intraabdominal 30 minutes before methamphetamine 2 mg/kg subcutaneous; motion watched for 60 minutes
Procedure: Male ICR (CD-1) mice (20-40 g) were used. Using a motion watcher (by Neuroscience) for watching animal movement with an IR sensor, the motion of the mice was determined. A compound or a suitable solvent was administered to each mouse, and after 30 minutes, physiological saline water or methamphetamine was administered thereto. Immediately after that, the motion of the mice was watched for 60 minutes. Based on the difference between the motion of the methamphetamine-administered group and the solvent-administered group during the test term, 100%, the motion of the test compound-administered group is computed and expressed as inhibition %.

T1 sequence (Q13255 19-1194): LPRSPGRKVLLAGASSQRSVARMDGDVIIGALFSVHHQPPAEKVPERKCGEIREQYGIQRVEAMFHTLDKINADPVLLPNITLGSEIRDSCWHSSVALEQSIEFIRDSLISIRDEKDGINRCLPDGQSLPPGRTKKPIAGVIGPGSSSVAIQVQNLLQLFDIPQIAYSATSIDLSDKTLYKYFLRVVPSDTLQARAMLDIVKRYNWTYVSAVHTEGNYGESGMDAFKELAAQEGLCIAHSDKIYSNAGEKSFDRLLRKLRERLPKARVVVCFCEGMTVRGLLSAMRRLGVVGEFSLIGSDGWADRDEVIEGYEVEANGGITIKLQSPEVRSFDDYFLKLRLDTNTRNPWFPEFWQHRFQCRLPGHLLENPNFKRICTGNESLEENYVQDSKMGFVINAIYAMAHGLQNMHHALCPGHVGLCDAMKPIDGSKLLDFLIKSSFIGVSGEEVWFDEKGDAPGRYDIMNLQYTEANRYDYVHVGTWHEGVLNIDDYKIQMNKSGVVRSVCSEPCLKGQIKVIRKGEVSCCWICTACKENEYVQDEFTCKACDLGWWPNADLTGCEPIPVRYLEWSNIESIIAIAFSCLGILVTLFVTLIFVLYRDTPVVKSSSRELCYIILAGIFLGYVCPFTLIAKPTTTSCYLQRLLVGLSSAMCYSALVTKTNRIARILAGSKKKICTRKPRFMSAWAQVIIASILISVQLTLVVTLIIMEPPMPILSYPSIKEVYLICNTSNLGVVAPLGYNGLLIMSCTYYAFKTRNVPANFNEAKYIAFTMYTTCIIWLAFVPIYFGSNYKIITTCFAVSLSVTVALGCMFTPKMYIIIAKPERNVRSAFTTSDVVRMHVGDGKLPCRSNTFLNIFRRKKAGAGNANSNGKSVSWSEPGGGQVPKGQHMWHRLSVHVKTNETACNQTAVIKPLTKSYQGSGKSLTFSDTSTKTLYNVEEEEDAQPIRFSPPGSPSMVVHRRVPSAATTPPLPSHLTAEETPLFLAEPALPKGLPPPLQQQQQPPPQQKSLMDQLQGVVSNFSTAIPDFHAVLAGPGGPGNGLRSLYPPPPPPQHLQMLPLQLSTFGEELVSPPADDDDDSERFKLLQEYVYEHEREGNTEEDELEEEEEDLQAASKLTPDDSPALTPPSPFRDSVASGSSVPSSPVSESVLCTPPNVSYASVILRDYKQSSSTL

| IC50 [1] | agonistic effect to mGluR1 [1] | SMILES | Motion (inhibition %) [2] |
| --- | --- | --- | --- |
| 6.9 nM | no agonistic effect | Cc1ccnc(N2CCN(C(=O)OCC(C)(C)C)CC2)c1 [Example 1, 2,2-Dimethylpropyl 4-(4-methylpyridin-2-yl)-1-piperazinecarboxylate] | >50% |
| 33 nM | no agonistic effect | CC(C)(C)COC(=O)N1CCN(c2nc3ccccc3o2)CC1 [Example 3, 2,2-Dimethylpropyl 4-(benzoxazol-2-yl)-1-piperazinecarboxylate] |  |
| 9.6 nM | no agonistic effect | C[C@@H](O)c1nc(-c2ccnc(N3CCN(C(=O)OCC(C)(C)C)CC3)c2)no1 [Example 27, 2,2-Dimethylpropyl 4-(4-{5-[(1R)-1-hydroxyethyl]-1,2,4-oxadiazol-3-yl}pyridin-2-yl)-1-piperazinecarboxylate] | >50% |
| 13 nM | no agonistic effect | CNc1nc(-c2ccnc(N3CCN(C(=O)OCC(C)(C)C)CC3)c2)no1 [Example 39, 2,2-Dimethylpropyl 4-{4-[5-(methylamino)-1,2,4-oxadiazol-3-yl]pyridin-2-yl}-1-piperazinecarboxylate] | >50% |
| 16 nM | no agonistic effect | C[C@H](O)c1nc(-c2ccnc(N3CCN(C(=O)CCC(C)(C)C)CC3)c2)no1 [Example 58, 1-(4,4-Dimethylpentanoyl)-4-(4-{5-[(1S)-hydroxyethyl]-1,2,4-oxadiazol-3-yl}pyridin-2-yl)piperazine] | >50% |
